Source: patent US20080200393A1, “Method and Composition For Treating Angiogenesis and For Preventing Cancer Progression and Metastasis Comprising a Prostate Secretory Protein (Psp94) Family Member” (Ambrillia Biopharma Inc., priority 2004, published 2008)
Where no end group is shown, it is not given here.

Legend:
ERK [1] = assay: Induced ERK phosphorylation in HUVEC (Western blot); format: cell-based, Human
Experimental: (§1) Cell culture. Human umbilical vein endothelial cells (HUVEC) and pulmonary aortic smooth muscle cells (PASMC) were obtained from Clonetics and maintained in endothelial cell basal medium-2 (EBM-2; Clonetics) and smooth muscle medium-2 (SmGM-2; Clonetics), respectively. Cells were cultured at 37° C. under a humidified atmosphere containing 5% CO2. For experimental purposes, cells were plated in 8 100-mm plastic dishes at 5,000 cells/cm^2 and were grown to confluence before overnight serum starvation. Cells were treated with vehicle or with a PCK3145 derivative diluted in 0.1 N NaOH, and stimulated with 50-100 ng/ml VEGF or PDGF, with 10 ng/ml of bFGF (basic fibroblast growth factor) or with 1 μM S1P (sphingosine-1-phosphate).
Immunoprecipitation and immunoblotting procedures. After treatment, cells were washed once with phosphate-buffered saline (PBS) containing 1 mM sodium orthovanadate and were incubated in the same medium for 1 h at 4° C. The cells were solubilized on ice in lysis buffer (150 mM NaCl, 10 mM Tris-HCl, pH 7.4, 1 mM EDTA, 1 mM EGTA, 0.5% Nonidet P-40, 1% Triton X-100) containing 1 mM sodium orthovanadate. The cells were then scraped from the culture dishes and the resulting lysates were clarified by centrifugation at 10,000 g for 10 min; Protein concentrations were determined using the micro bicinchoninic acid method (Pierce). For immunoprecipitation studies, lysates were clarified by a 1 h incubation at 4° C. with a mixture of Protein A/Protein G Sepharose beads. After removal of the Sepharose beads by low-speed centrifugation, identical amounts of protein (200 μg) from each sample were transferred to fresh tubes and incubated in lysis buffer overnight at 4° C. in the presence of 2 μg/ml of specific antibodies. Immunocomplexes were collected by incubating the mixture with 25 μl (50% suspension) of Protein A- (rabbit primary antibody) or Protein G- (mouse primary antibody) Sepharose beads, for 2 h. Nonspecifically-bound material was removed by washing the beads three times in 1 ml of lysis buffer containing 1 mM sodium orthovanadate, and bound material was solubilized in 25 μl of two-fold concentrated Laemmli sample buffer (125 mM Tris-HCl (pH 6.8), 20% glycerol, 4% SDS, 10% β-mercaptoethanol, and 0.00125% bromphenol blue), boiled 5 min, and resolved by SDS-PAGE. The proteins were transferred onto polyvinylidene difluoride (PVDF) membranes, blocked 1 h at room temperature with Tris-buffered saline/Tween 20 (147 mM NaCl, 20 mM Tris/HCl, pH 7.5, and 0.1% Tween 20) containing 2% bovine serum albumin and incubated overnight at 4° C. with primary antibody. […] The immunoreactive bands were quantified by scanning densitometry (Molecular Dynamics).
VEGF is a strong activator of ERKs (Extracellular-signal-Regulated protein Kinases) 1 and 2 via VEGF receptor 2. In order to test the ability of the PCK3145 derivative in potentially antagonizing VEGF-mediated ERK phosphorylation, serum-starved quiescent endothelial cells (HUVEC) were incubated with vehicle (phosphate-buffered saline (PBS) pH 7.4) or PCK3145 derivative (300 μg/ml) for 24 h and then stimulated with VEGF, bFGF (basic Fibroblast Growth Factor) or S1P (sphingosine-1-phosphate). Cells were washed with PBS containing NaF/Na3VO4 and incubated in the same medium buffer for 1 h at 4° C. The cells were scraped from the culture dishes and the resulting lysates clarified by centrifugation. Western blotting and immunodetection using anti-phosphoERK and anti-ERK antibodies was then performed.

ERK [2] = assay: PDGF-induced ERK phosphorylation in PASMC; format: cell-based
Experimental: as §1
Immunoprecipitation and immunoblotting procedures. After treatment, cells were washed once with phosphate-buffered saline (PBS) containing 1 mM sodium orthovanadate and were incubated in the same medium for 1 h at 4° C. […] The cells were then scraped from the culture dishes and the resulting lysates were clarified by centrifugation at 10,000 g for 10 min; Protein concentrations were determined using the micro bicinchoninic acid method (Pierce). […] The immunoreactive bands were quantified by scanning densitometry (Molecular Dynamics). […]

glioma cells (U-87) = assay: SEAP gene-reporter assay (Mercury Profiling Kit); format: cell-based
Experimental: In order to investigate the potential intracellular pathways triggered by the PCK3145 derivative, a gene-reporter assay using the SEAP (Secreted Alkaline Phosphatase) Mercury Profiling Kit (CLONTECH) was performed in glioma cells (U-87). This assay enables the monitoring of transcription factors that are triggered by a particular experimental condition by assaying the alkaline phosphatase activity in the extracellular media.

U-87 cells = assay: U-87 cell migration on hyaluronic acid; format: cell-based; details: 300 ug/ml, 48 hrs pretreatment; HA-coated filters, 2 hours
Experimental: The biological activity of a desired polypeptide may further be determined using migration assays. U-87 cells are treated with a polypeptide of the present invention (e.g., any PCK3145 derivative, fragment, analog, such as for example, any one of or combinations of SEQ ID NOs.: 9 to 98). The treated cells are trypsinised, counted, and seeded on HA-coated filters inserted in modified Boyden Chambers as described herein or in the art. Cell migration is allowed to proceed for 2 hours at 37° C. Filters are then stained for cells that have migrated through the filter. A decreased basal U-87 cell migration observed in cells treated with a polypeptide of the present invention is indicative of a biologically active polypeptide (i.e., a biologically active PCK3145 derivative, fragment, analog).
Migration/invasion of cancer cells is a key event in tumor metastasis. In vitro, this process can be reconstituted by plating cells onto ECM-coated filters inserted in modified Boyden chemotactic chambers. The effect of the PCK3145 derivative can be monitored by the number of cells that had migrated comparatively to untreated control cells. […] U-87 cells were treated with the PCK3145 derivative (300 ug/ml, 48 hrs), trypsinised, counted, and seeded on HA-coated filters inserted in modified Boyden Chambers. […]

MT1-MMP = MT1-MMP expression in U-87 cells; format: cell-based; details: 300 ug/ml
RhoA = RhoA gene and protein expression in U-87 cells (Western blot, RT-PCR); format: cell-based; details: U-87, 300 ug/ml, 48 hrs
Experimental: Specific manipulation of the GTPase Rho activity can be used to suppress or enhance the organizational behaviour of endothelial cells as well as it can restrict cancer cells proliferation. In particular, RhoA mediates cell contractility by organizing actin filaments which consequently regulates cell migration. […] Tests were carried out in order to determine whether the PCK3145 derivative affected RhoA gene and protein expression. U-87 cells were either treated with the PCK3145 derivative (300 ug/ml, 48 hrs). Results of this experiment confirm that the PCK3145 derivative induced endogenous RhoA protein expression in U-87 cells as assessed by Western blotting (FIG. 11A, FIG. 11C).

## EWQTDNCETCTCYET (cysteine pairing not given here) [PCK3145 derivative, PCK3145 derivative with acetylaminomethyl groups on the three cysteines]
ERK [1]
  extent of ERK phosphorylation by VEGF, dose-response: gradually inhibit
ERK [1]; 300 μg/ml, 24 h
  ERK phosphorylation induced by S1P: not that induced by bFGF or S1P
  ERK phosphorylation induced by VEGF: specific inhibitory effect
  total amount of ERK: unaffected
ERK [1]; 3 and 24 hrs
  VEGF-induced ERK phosphorylation, time-course: necessity of a long term action
ERK [2]
  PDGF-induced ERK phosphorylation: inhibition
Glioma cells (U-87)
  MAPK/JNK pathway (SRE), SEAP reporter: triggers significantly
  NFkB pathway, SEAP reporter: triggers significantly
  secretion of the constitutively expressed SEAP: inhibited
U-87 cells
  decrease of basal U-87 cell migration: approximately 3 fold
MT1-MMP
  MT1-MMP expression: slight increase
RhoA
  RhoA gene expression (RT-PCR): paralleled that of its gene expression
  endogenous RhoA protein expression (Western blotting): induced
